In patent US7875604B2, “Compounds that inhibit HIV particle formation” (University of Virginia Patent Foundation, priority 2004, dated 2011):

Experiments:
[1] = system: U1 cells latently infected with HIV-1; assay: U1 latency activation assay (TNF-α induced, supernatant reverse transcriptase); type: cell-based; settings: U1 cell assay, analogs, Table 8
Procedure: U1 cells were obtained from the AIDS Research and Reference Reagent Program and maintained under standard culture conditions in RPMI 1640 supplemented with 10% fetal bovine serum (heat inactivated), 2 mM L-glutamine, 100 U/mL penicillin and 100 μg/mL streptomycin. U1 cells are derived from the histocytic leukemia cell line U937, and contain an integrated copy of a cytokine and/or phorbol inducible provirus (HIV-1IIIB). Cultures were maintained in such a way as to ensure exponential growth of the populations. Addition of TNF-α to the cell culture induces HIV-1, so that inhibition of virus production indicates an inhibition of a post-integration function of the HIV-1 life cycle. This is where an inhibitor of Rev function would be expected to act. […]
(§1) At the time of the assay, cells were collected by centrifugation and counted by hemacytometer. If cell viability by Trypan Blue dye exclusion was less than 70% the assay was terminated. The cells were adjusted to 5×10^4 cells/mL and 100 μL placed in 96 well plates with 100 μL media containing a final concentration of 5 ng/mL TNF-α and the test compound. Cultures were incubated for 3 days and supernatants harvested. Compound toxicity was determined by MTS dye reduction. Virus expression was measured by supernatant reverse transcriptase activity.
Reverse transcriptase was assayed to measure virus particle release as described above for the PBMC assay.
(§2) Compounds were tested in the U1 latency assay using the maximum high-test concentration possible based on the supplied stocks which are listed in table 3. Compounds were tested using the maximum high-test concentration possible based on the supplied stocks. Compounds were prepared at a 2× high-test concentration by combining drug stock with tissue culture media at a ratio of 5 μL of drug to 995 μL of media. This 2× high-test sample was subsequently serially diluted in tissue culture media using 1/2 log dilutions. This series of 2× concentrated drug was subsequently diluted 1:1 by combining with an equal volume of cells in media in the 96-well plates used for the assay. Temacrazine a known inhibitor of HIV transcription was used as a control compound that is active in the post-integration part of the HIV life cycle.
(§3) Compounds were tested using the maximum high-test concentration possible based on the supplied stocks. Compounds were prepared at a 2× high-test concentration by combining drug stock with tissue culture media at a ratio of 5 μL of drug to 995 μL of media. This 2× high-test (HT) sample was subsequently serially diluted in tissue culture media using 1/2 log dilutions. This series of 2× concentrated drug was subsequently diluted 1:1 by combining with an equal volume of cells in media in the 96-well plates used for the assay.

U1 cells = assay: MTS staining for cell viability in U1 cell assay; type: cell-based; settings: analogs, Table 8, MTS, read-out: TC50 (the source's name)
Procedure: as §1
At assay termination, the assay plates were stained with the soluble tetrazolium-based dye MTS (CellTiter 96 Reagent, Promega) to determine cell viability and quantify compound toxicity as described for the PBMC assay.
as §2, §3

## Cc1n[nH]c2nc3ccc(Cl)cc3c(-c3ccccc3)c12 [Compound 111]
[1]
  IC50: 1.7 µM
U1 cells
  CC50: > 50 µM

## Cc1n[nH]c2nc3ccc(Br)cc3c(-c3ccccc3)c12 [Compound 112]
[1]
  IC50: 1.08 µM
U1 cells
  CC50: > 50 µM

## COc1cc2cc(C(=O)Nc3ccccc3)c(N)nc2cc1OC [Compound 113]
[1]
  IC50: 27.4 µM
U1 cells
  CC50: > 75 µM

## COc1cc2cc3c(=O)[nH]c(-c4ccc(C)cc4)nc3nc2cc1OC [Compound 114]
[1]
  IC50: 14.4 µM
U1 cells
  CC50: > 75 µM

## COc1ccc2nc3c(c(N)c2c1)CCCC3 [Compound 211]
[1]
  IC50: 9.11 µM
U1 cells
  CC50: 48.5 µM

## N#Cc1c(C(F)(F)F)nc2ccc(F)cc2c1N [Compound 212]
[1]
  IC50: 0.484 µM
U1 cells
  CC50: 28.6 µM

## Nc1c2c(nc3ccc([N+](=O)[O-])cc13)CCCC2=O [Compound 213]
[1]
  IC50: 0.826 µM
U1 cells
  CC50: 58.6 µM

## C=CCc1c(C)nc2ccc(OC)cc2c1N [Compound 214]
[1]
  IC50: 9.19 µM
U1 cells
  CC50: > 75 µM

## COc1ccc(-c2c(C(C)=O)c(C)nc3sc(C(N)=O)c(N)c23)cc1 [Compound 311]
[1]
  IC50: 1.65 µM
U1 cells
  CC50: > 75 µM

## CCc1c(C)nc2sc(C(=O)c3ccc(Cl)cc3)c(N)c2c1C [Compound 313]
[1]
  IC50: > 50 µM
U1 cells
  CC50: > 50 µM

## Cc1ccc2c(N)c(C(N)=O)sc2n1 [Compound 314]
[1]
  IC50: 2.11 µM
U1 cells
  CC50: > 75 µM

## Cc1nc2sc(C(N)=O)c(N)c2c(C)c1CC(=O)c1ccccc1 [Compound 315]
[1]
  IC50: 0.75 µM
U1 cells
  CC50: > 75 µM

## NC(=O)c1sc2nc(-c3cccnc3)ccc2c1N [Compound 316]
[1]
  IC50: 23.4 µM
U1 cells
  CC50: > 75 µM

## NC(=O)c1sc2nc(-c3cccs3)cc(C(F)(F)F)c2c1N [Compound 317]
[1]
  IC50: > 75 µM
U1 cells
  CC50: > 75 µM

## Cc1cc(C(F)(F)F)c2c(N)c(C(N)=O)sc2n1 [Compound 318]
[1]
  IC50: < 0.237 µM
U1 cells
  CC50: > 75 µM

## CN1CCc2nc3sc(C(N)=O)c(N)c3cc2C1 [Compound 319]
[1]
  IC50: 20.2 µM
U1 cells
  CC50: > 37.5 µM

## COCc1cc(C)nc2sc(C(N)=O)c(N)c12 [Compound 320]
[1]
  IC50: 0.522 µM
U1 cells
  CC50: > 75 µM

## NC(=O)c1sc2nc3c(cc2c1N)CCCC3 [Compound 321]
[1]
  IC50: 1.94 µM
U1 cells
  CC50: > 75 µM

## NC(=O)c1sc2nc(-c3cccs3)cc(-c3ccc(F)cc3)c2c1N [Compound 322]
[1]
  IC50: 8.84 µM
U1 cells
  CC50: 17.4 µM

## Cc1ccc(-c2cc(-c3ccccc3)nc3sc(C(N)=O)c(N)c23)cc1 [Compound 323]
[1]
  IC50: 0.745 µM
U1 cells
  CC50: 22.6 µM

## NC(=O)c1sc2nc3c(cc2c1N)CCC3 [Compound 324]
[1]
  IC50: 2.19 µM
U1 cells
  CC50: > 75 µM

## CN(C)c1ccnc2sc(C(N)=O)c(N)c12 [Compound 325]
[1]
  IC50: 0.281 µM
U1 cells
  CC50: > 75 µM

## CCOC(=O)c1c2c(nc3sc(C(N)=O)c(N)c13)CCCC2 [Compound 327]
[1]
  IC50: 0.601 µM
U1 cells
  CC50: 65.8 µM

## Cc1cc2c(N)c(C(N)=O)sc2nc1C [Compound 328]
[1]
  IC50: 1.06 µM
U1 cells
  CC50: 37 µM

## CCCc1ccc2c(N)c(C(N)=O)sc2n1 [Compound 329]
[1]
  IC50: 2.03 µM
U1 cells
  CC50: 58.4 µM

## Cc1cc2c(N)c(C(N)=O)sc2nc1-c1ccc(F)cc1 [Compound 330]
[1]
  IC50: 6.91 µM
U1 cells
  CC50: > 75 µM

## CCc1c(C)nc2sc(C(=O)NCC(=O)O)c(N)c2c1C [Compound 331]
[1]
  IC50: 66 µM
U1 cells
  CC50: > 75 µM

## Cc1ccc(-c2cc(C(F)(F)F)c3c(N)c(C(N)=O)sc3n2)cc1 [Compound 332]
[1]
  IC50: > 75 µM
U1 cells
  CC50: 22.5 µM

## NC(=O)c1sc2nc(Cc3ccccc3)cc(C(F)(F)F)c2c1N [Compound 334]
[1]
  IC50: 2.37 µM
U1 cells
  CC50: > 75 µM

## COc1ccc(-c2cc(-c3ccccc3)nc3sc(C(N)=O)c(N)c23)cc1 [Compound 335]
[1]
  IC50: 1.41 µM
U1 cells
  CC50: 53.9 µM

## CC1CCc2nc3sc(C(N)=O)c(N)c3cc2C1 (stereo not shown) [Compound 336]
[1]
  IC50: 2.92 µM
U1 cells
  CC50: > 75 µM

## NC(=O)c1sc2nc3ccccc3cc2c1N [Compound 337]
[1]
  IC50: 2.4 µM
U1 cells
  CC50: > 75 µM

## CCOC(=O)c1c(C)nc2sc(C(N)=O)c(N)c2c1-c1ccccc1 [Compound 338]
[1]
  IC50: 5.23 µM
U1 cells
  CC50: > 75 µM

## COc1ccc(-c2cc(-c3ccc(OC)cc3)c3c(N)c(C(N)=O)sc3n2)cc1 [Compound 339]
[1]
  IC50: 1.28 µM
U1 cells
  CC50: 38.3 µM

## CCOC(=O)c1sc(Cl)nc1C(F)(F)F [Compound 411]
[1]
  IC50: > 75 µM
U1 cells
  CC50: > 75 µM

## O=C(Nc1ccccc1)c1sc(Cl)nc1C(F)(F)F [Compound 412]
[1]
  IC50: 16.7 µM
U1 cells
  CC50: 51.7 µM

## O=C(Nc1cccc(F)c1)c1sc(Cl)nc1C(F)(F)F [Compound 413]
[1]
  IC50: 20.7 µM
U1 cells
  CC50: 50.7 µM

## O=C(Nc1cccc(C(F)(F)F)c1)c1sc(Cl)nc1C(F)(F)F [Compound 414]
[1]
  IC50: 14.5 µM
U1 cells
  CC50: 14.7 µM

## O=C(Nc1ccccc1F)c1sc(Cl)nc1C(F)(F)F [Compound 415]
[1]
  IC50: 37.3 µM
U1 cells
  CC50: 51.2 µM

## Cc1ccc(NC(=O)c2sc(Cl)nc2C)cc1C [Compound 416]
[1]
  IC50: 0.767 µM
U1 cells
  CC50: > 75 µM

## Cc1ccc(NC(=O)c2sc(Cl)nc2C)cc1 [Compound 417]
[1]
  IC50: 1.62 µM
U1 cells
  CC50: 51.9 µM

## Cc1nc(Cl)sc1C(=O)Nc1ccc(C(F)(F)F)cc1 [Compound 418]
[1]
  IC50: 2.18 µM
U1 cells
  CC50: > 75 µM

## Cc1nc(Cl)sc1C(=O)Nc1ccc(C(C)(C)C)cc1 [Compound 420]
[1]
  IC50: 6.8 µM
U1 cells
  CC50: > 75 µM

## N#Cc1ccc(NC(=O)c2sc(Cl)nc2-c2ccccc2)cc1 [Compound 421]
[1]
  IC50: > 75 µM
U1 cells
  CC50: > 75 µM

## Cc1ccc(NC(=O)c2sc(Cl)nc2-c2ccccc2)cc1C [Compound 422]
[1]
  IC50: 14.3 µM
U1 cells
  CC50: > 75 µM

## Cc1ccc(NC(=O)c2sc(Cl)nc2-c2ccccc2)c(C)c1 [Compound 423]
[1]
  IC50: 42.4 µM
U1 cells
  CC50: > 75 µM

## COc1ccccc1NC(=O)c1cc(Cl)nnc1Cl [Compound 511]
[1]
  IC50: 14.3 µM
U1 cells
  CC50: 17.3 µM

## O=C(c1cc(Cl)nnc1Cl)N1CCOCC1 [Compound 512]
[1]
  IC50: 26.3 µM
U1 cells
  CC50: > 75 µM

## CN1CCN(C(=O)c2cc(Cl)nnc2Cl)CC1 [Compound 513]
[1]
  IC50: 7.05 µM
U1 cells
  CC50: > 75 µM

## O=C(c1cc(Cl)nnc1Cl)N1CCCC1 [Compound 514]
[1]
  IC50: > 75 µM
U1 cells
  CC50: > 75 µM

## O=C(NCc1ccccn1)c1cc(Cl)nnc1Cl [Compound 515]
[1]
  IC50: 13.6 µM
U1 cells
  CC50: > 75 µM

## Oc1nc(S)ncc1-c1ccccc1 [Compound 612]
[1]
  IC50: > 75 µM
U1 cells
  CC50: > 75 µM

## Oc1nc(S)nc(O)c1-c1ccccc1 [Compound 613]
[1]
  IC50: > 75 µM
U1 cells
  CC50: > 75 µM

## O=[N+]([O-])c1ccc(-c2cnc(NO)nc2)cc1 [Compound 614]
[1]
  IC50: > 75 µM
U1 cells
  CC50: > 75 µM

## COc1ccc(-c2cnc(S(C)(=O)=O)nc2)cc1 [Compound 615]
[1]
  IC50: 11.9 µM
U1 cells
  CC50: > 75 µM

## CSc1ncc2c(n1)[nH]c1ccccc12 [Compound 616]
[1]
  IC50: 0.915 µM
U1 cells
  CC50: > 75 µM
